Columns and labels:
Assay type in all cases: cell-based
P2XD = target: T1, P2XD (Dictyostelium discoideum, UniProt Q54J33); assay: whole-cell patch clamp, ATP-evoked current, HEK293 cells
T1 construct: humanized cDNA (Genscript), full length, C-terminal EYMPME (EE) tag, pcDNA3.1, transient expression in HEK293 cells
T1 sequence (Q54J33 1-407): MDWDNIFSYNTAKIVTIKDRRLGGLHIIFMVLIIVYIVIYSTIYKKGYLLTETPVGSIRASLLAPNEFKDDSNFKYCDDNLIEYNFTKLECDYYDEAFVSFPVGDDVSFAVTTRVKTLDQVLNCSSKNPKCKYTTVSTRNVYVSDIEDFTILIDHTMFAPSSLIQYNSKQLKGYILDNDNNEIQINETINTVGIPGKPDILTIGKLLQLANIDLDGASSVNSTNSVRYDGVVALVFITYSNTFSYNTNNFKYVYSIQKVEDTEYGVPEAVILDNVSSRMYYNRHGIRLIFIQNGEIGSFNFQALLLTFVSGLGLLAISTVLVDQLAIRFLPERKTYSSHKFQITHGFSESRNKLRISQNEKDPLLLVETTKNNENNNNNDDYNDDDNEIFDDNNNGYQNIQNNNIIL

P2XA [1] = target: T2, P2XA (Dictyostelium discoideum, UniProt Q86JM7); assay: as above
T2 construct: humanized cDNA, full length, C-terminal EYMPME (EE) tag, pcDNA3.1, transient expression in HEK293 cells
T2 sequence (Q86JM7 1-378): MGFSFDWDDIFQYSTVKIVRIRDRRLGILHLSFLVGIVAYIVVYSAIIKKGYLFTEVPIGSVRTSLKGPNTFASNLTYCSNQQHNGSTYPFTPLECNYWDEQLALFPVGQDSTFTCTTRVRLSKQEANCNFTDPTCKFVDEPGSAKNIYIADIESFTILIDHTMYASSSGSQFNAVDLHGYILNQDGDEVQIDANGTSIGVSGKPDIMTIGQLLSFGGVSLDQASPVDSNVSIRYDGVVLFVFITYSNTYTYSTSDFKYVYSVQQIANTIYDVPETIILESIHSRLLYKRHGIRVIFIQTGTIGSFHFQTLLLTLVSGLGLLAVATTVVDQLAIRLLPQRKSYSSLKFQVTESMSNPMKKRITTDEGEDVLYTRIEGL

P2XB = target: T3, P2XB (Dictyostelium discoideum, UniProt Q553Y1); assay: as above
T3 construct: humanized cDNA (Genscript), full length, C-terminal EYMPME (EE) tag, pcDNA3.1, transient expression in HEK293 cells
T3 sequence (Q553Y1 1-369): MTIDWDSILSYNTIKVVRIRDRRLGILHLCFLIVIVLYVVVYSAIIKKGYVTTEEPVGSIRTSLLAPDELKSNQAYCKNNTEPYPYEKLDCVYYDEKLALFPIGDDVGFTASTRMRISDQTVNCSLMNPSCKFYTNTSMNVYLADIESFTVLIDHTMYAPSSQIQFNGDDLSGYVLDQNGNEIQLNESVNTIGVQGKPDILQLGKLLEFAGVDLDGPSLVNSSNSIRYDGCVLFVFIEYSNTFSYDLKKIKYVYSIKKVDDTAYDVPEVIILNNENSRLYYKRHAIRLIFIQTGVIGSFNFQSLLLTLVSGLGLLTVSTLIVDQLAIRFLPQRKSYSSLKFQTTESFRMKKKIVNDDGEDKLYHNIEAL

P2XE = target: T4, P2XE (Dictyostelium discoideum, UniProt Q54JH4); assay: as above
T4 construct: humanized cDNA (Genscript), full length, C-terminal EYMPME (EE) tag, pcDNA3.1, transient expression in HEK293 cells
T4 sequence (Q54JH4 1-388): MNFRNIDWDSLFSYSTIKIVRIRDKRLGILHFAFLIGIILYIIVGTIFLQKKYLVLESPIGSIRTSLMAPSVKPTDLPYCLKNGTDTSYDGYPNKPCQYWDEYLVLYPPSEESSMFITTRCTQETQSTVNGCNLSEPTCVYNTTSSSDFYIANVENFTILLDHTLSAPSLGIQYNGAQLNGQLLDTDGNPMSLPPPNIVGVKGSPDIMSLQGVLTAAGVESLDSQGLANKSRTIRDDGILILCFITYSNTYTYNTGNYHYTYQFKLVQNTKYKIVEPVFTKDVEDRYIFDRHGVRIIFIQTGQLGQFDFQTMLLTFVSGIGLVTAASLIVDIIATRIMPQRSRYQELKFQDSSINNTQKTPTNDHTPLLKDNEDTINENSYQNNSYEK

P2XA [2] = target: T2, P2XA; assay: whole-cell patch clamp, ADP-evoked current, HEK293 cells; details: weak agonist; external and internal Na+; authors note possible ATP impurity in commercial nucleotides

Row | EC50 (P2XD) [µM] | EC50 (P2XA [1]) [µM] | EC50 (P2XB) [µM] | EC50 (P2XE) [µM] | % of ATP current at 3 mM (P2XA [2]) | SMILES
1 | ~3000 | 158 | ~3000 | ~300 | – | Nc1ncnc2c1ncn2[C@@H]1O[C@H](COP(=O)(O)OP(=O)(O)OP(=O)(O)O)[C@@H](O)[C@H]1O [ATP]
2 | – | – | – | – | ~ 10% | Nc1ncnc2c1ncn2[C@@H]1O[C@H](COP(=O)(O)OP(=O)(O)O)[C@@H](O)[C@H]1O [ADP]
